Laboratory results reported in US20210292710A1, “METHOD FOR ENHANCING IMMUNE FUNCTION OF IMMUNE CELL AND IMMUNE CELL LINE PRODUCED USING THE SAME” (INDUSTRY-ACADEMIC COOPERATION FOUNDATION, YONSEI UNIVERSITY, priority 2020, published 2021).

Test system: lung-cancer cell line KLN205
Test: Percentage of immune cells relative to lung-cancer cell line KLN205
Format: in vivo
Text: Referring to FIG. 10B, the percentage of immune cells relative to the lung-cancer cell line KLN205 due to PI3K inhibitor treatment is shown. Referring first to FIG. 10B (a), the percentage of CD3+ CD8+ T cells relative to the lung-cancer cell line KLN205 due to PI3K inhibitor treatment is shown. Next, referring to (b) of FIG. 10B, the percentage of CD3+ CD4+ CD25+ Foxp3 T cells relative to lung-cancer cell line KLN205 due to PI3K inhibitor treatment is shown. Next, referring to (c) of FIG. 10B, the percentage of CD3+ TIL cells relative to the lung-cancer cell line KLN205 due to PI3K inhibitor treatment is shown. Next, referring to (d) of FIG. 10B, the percentage of MDSC cells relative to lung-cancer cell line KLN205 due to PI3K inhibitor treatment is shown.

SMILES: Nc1cc(C(F)(F)F)c(-c2cc(N3CCOCC3)nc(N3CCOCC3)n2)cn1 [BKM 120, buparlisib]
- average percentage of CD3+ CD4+ CD25+ Foxp3 T cells (35 mpk): 17%
- average percentage of CD3+ CD8+ T cells (35 mpk): 39%
- average percentage of MDSC cells (35 mpk): 24%
- distribution of the percentage of CD3+ CD4+ CD25+ Foxp3 T cells (35 mpk): 13 to 24%
- distribution of the percentage of CD3+ CD8+ T cells (35 mpk): 35 to 49%
- distribution of the percentage of MDSC cells (35 mpk): 23 to 25%
- percentage of CD3+ TIL cells on average (35 mpk): 5%
- average percentage of CD3+ CD4+ CD25+ Foxp3 T cells (50 mpk): 15%
- average percentage of CD3+ CD8+ T cells (50 mpk): 41%
- average percentage of MDSC cells (50 mpk): 18%
- distribution of the percentage of CD3+ CD4+ CD25+ Foxp3 T cells (50 mpk): 12 to 17%
- distribution of the percentage of CD3+ CD8+ T cells (50 mpk): 32 to 50%
- distribution of the percentage of MDSC cells (50 mpk): 17 to 19%
- percentage of CD3+ TIL cells on average (50 mpk): 6%
